Reference: patent publication US20230357248A1, “PYRROLOPYRIMIDINE COMPOUND AS BTK INHIBITOR AND USE THEREOF” (MEDSHINE DISCOVERY INC., priority 2019, published 2023)
pIC50: −log10 of the molar value. Marks after values point to notes of the source that are not given here.

How the values were obtained:
BTK^C481S = BTK^C481S (Homo sapiens (Human), UniProt Q06187, C481S); assay: BTK enzyme activity assay; format: biochemical; details: 200 μM ATP; 33P-ATP, filter-binding method
Experimental: The specific assay process of BTK enzyme activity assay is as follows: Buffer: 20 mM 2-[4-(2-hydroxyethyl)-1-piperazinyl]ethanesulfonic acid (Hepes) (pH 7.5), 10 mM magnesium chloride, 1 mM ethylenebis(oxyethylenenitrilo)tetraacetic acid (EGTA), 0.02% polyoxyethylene dodecyl ether (Brij35), 0.02 mg/mL BSA, 0.1 mM sodium vanadate (Na3VO4), 2 mM dithiothreitol (DTT), 1% DMSO, 200 μM adenosine triphosphate (ATP). • 1. The substrate was prepared in freshly prepared reaction buffer; • 2. The required cofactor was added to the above-mentioned substrate solution; • 3. The kinase BTK^C481S was added to the above-mentioned substrate solution and mixed well; • 4. The compound dissolved in DMSO was added to the kinase reaction mixture by Echo550 (Acoustic technology; nanoliter range), and the mixture was incubated at room temperature for 20 minutes; • 5. ^33P-ATP (specific radioactivity of 10 μCi/μL) was added to the reaction mixture to initiate the reaction; • 6. The mixture was incubated at room temperature for 2 hours; • 7. The radioactivity was detected by filter-binding method; • 8. Kinase activity data represented the percentage of remaining kinase activity in the assay sample compared to the vehicle (dimethyl sulfoxide) reaction.

rat plasma protein = assay: In vivo plasma protein binding (PPB) assay in rat; format: in vitro ADME; details: rat in vivo plasma samples; dialysis 4 h 37° C.; average of 3 or 4 results
Experimental: 1.1 Preparation of Dialysis Membrane and Matrix
On the day of the assay, frozen plasma was thawed in running cold tap water. After the plasma was completely thawed, the plasma was centrifuged at 3220×g for 5 min, and suspensions and sediments in the plasma were removed.
A double-layer dialysis membrane was soaked in ultrapure water for about 1 h, and then taken out. The double-layer dialysis membrane was divided into two parts, and then soaked in ethanol-water (20:80, v:v) solution for 20 min or placed at 2-8° C. with a validity period of 1 month. Before the start of the assay, the dialysis membrane was rinsed twice with ultrapure water and soaked in ultrapure water for another 20 min for use.
1.2 The Mixing Steps of Compound Sample and the Dilution Process of Control Compound
1.2.1 The Mixing Steps of Compound Sample
An appropriate amount of original samples were transferred to a collection tube of mixed samples, and the samples in the collection tube of mixed samples were mixed thoroughly.
1.2.2 The Dilution Process of the Control Compound
The control compound was dissolved in dimethyl sulfoxide to obtain a 10 mM stock solution. A working solution of 400 μM was obtained by dilution with dimethyl sulfoxide. Preparation process of plasma sample: 995 μL of blank plasma was weighed, and 5 μL of warfarin working solution was added. […]

Chain of BTK^C481S (Q06187 whole entry C481S): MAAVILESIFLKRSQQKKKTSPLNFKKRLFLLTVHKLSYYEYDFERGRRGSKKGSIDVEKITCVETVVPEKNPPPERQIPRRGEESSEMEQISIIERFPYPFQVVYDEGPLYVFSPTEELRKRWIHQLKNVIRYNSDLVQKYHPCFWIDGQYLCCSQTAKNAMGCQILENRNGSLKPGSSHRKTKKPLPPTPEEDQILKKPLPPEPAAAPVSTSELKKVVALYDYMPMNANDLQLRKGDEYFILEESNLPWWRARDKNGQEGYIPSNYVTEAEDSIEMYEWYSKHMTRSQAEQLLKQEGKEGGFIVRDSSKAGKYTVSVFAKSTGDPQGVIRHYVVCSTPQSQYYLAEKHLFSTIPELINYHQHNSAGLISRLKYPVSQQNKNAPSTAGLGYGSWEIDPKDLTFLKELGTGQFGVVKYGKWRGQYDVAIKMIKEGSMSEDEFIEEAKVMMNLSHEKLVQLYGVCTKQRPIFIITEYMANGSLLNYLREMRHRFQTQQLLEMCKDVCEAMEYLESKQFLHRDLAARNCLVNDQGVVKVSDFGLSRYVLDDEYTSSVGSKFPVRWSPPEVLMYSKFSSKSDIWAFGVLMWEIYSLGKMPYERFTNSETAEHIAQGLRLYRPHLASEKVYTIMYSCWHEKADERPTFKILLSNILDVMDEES

pIC50 (BTK^C481S): 8.14
Unbound PPB (rat plasma protein): 0.2% ^a
Structure (SMILES): CO[C@@H]1C[C@@H](CO)OC[C@@H]1Nc1ncnc2[nH]cc(C(=O)c3ccc(Oc4ccccc4)cc3Cl)c12 [Compound 4]
